Molecular target: MASP-2 CCP2-SP (Homo sapiens (Human), UniProt O00187)
Experiment: MASP-2 co-crystallization, X-ray crystallography and structure analysis (H-bonds, van der Waals contacts);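 on Ligand-pharmacophore element distance, pharmacophore element C2: distance from averaged pharmacophore element to bound ligand; missing value means element absent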;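 on Ligand-pharmacophore element distance, pharmacophore element C3: distance from averaged pharmacophore element to bound ligand; missing value means element absent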;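 on Ligand-pharmacophore element distance, pharmacophore element C4: distance from averaged pharmacophore element to bound ligand; missing value means element absent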;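 on Ligand-pharmacophore element distance, pharmacophore element C5: distance from averaged pharmacophore element to bound ligand; missing value means element absent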
Design: van der Waals contact distance, MASP-2 HIS 483 atom CD2 / van der Waals contact distance, MASP-2 HIS 483 atom NE2 / van der Waals contact distance, SER 654 C to compound atom / van der Waals contact distance, SER 654 O to compound atom / van der Waals contact distance, TRP 655 C to compound atom / van der Waals contact distance, MASP-2 GLY 528 atom CA / van der Waals contact distance TRP 655 atom CZ3 / van der Waals contact distance TRP 655 atom N / van der Waals contact distance TRP 655 atom CE3 / van der Waals contact distance GLY 656 atom C / van der Waals contact distance GLY 656 atom CA / van der Waals contact distance GLY 656 atom O / van der Waals contact distance, MASP-2 TYR 607 atom CD1 / van der Waals contact distance, MASP-2 PRO 606 atom O / d(C3,CA1) / d(CA1,N1)2 / d(H4,O1) / d(H4,O2) / d(O1,O2) / d(CA1,O2) / d(CA6,O1) / d(CA6,O2) / d(CA1,C5) / d(O2,H3) / d(N2,C2) / d(CA5,N2) / d(N2,C4) / d(N2,C6) / d(N2,CA3) / d(N2,O3) / d(O4,H2): unit not given beside the values
Settings: for H-bond distance to MASP-2 ASP 627 atom OD2: ASP 627 OD2; for H-bond distance to MASP-2 GLY 656 atom N: GLY 656 N; for H-bond distance to MASP-2 GLY 656 atom O: GLY 656 O; for H-bond distance to MASP-2 SER 654 atom O: SER 654 O; for H-bond distance to MASP-2 SER 657 atom O: SER 657 O; for van der Waals contact distance, MASP-2 HIS 483 atom CD2 / van der Waals contact distance, MASP-2 HIS 483 atom NE2: Table A2-1; for Ligand-pharmacophore element distance, pharmacophore element C2 / Ligand-pharmacophore element distance, pharmacophore element C3 / Ligand-pharmacophore element distance, pharmacophore element C4 / Ligand-pharmacophore element distance, pharmacophore element C5 / Ligand-pharmacophore element distance, pharmacophore element C6 / Ligand-pharmacophore element distance, pharmacophore element C7 / Ligand-pharmacophore element distance, pharmacophore element CA1 / Ligand-pharmacophore element distance, pharmacophore element CA2 / Ligand-pharmacophore element distance, pharmacophore element CA3 / Ligand-pharmacophore element distance, pharmacophore element CA4 / Ligand-pharmacophore element distance, pharmacophore element CA5 / Ligand-pharmacophore element distance, pharmacophore element CA6: Table A4-1; for d(N2,C2) / d(N2,CA2) / d(O2,H3) / d(O2,N2): Table A5-2 pharmacophore distance, S3/S4 region; for a(N1, CA1, O1) b): Methyl-amino-pyridine compounds; for a(O1, O2, H3) / a(O1, O2, N2) / a(O2, N2, C2) / a(O2, N2, CA2): Table A6-2 pharmacophore angle; for H-bond distance to MASP-2 ARG 630 atom NH1 (second bond): ARG 630 NH1; for H-bond distance to MASP-2 SER 628 atom O: SER 628 O
Outline: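 E. coli-expressed CCP2-SP (±6His); apo crystals soaked 1–2× in inhibitor-containing crystallization solution; optional 20% glycerol cryoprotection, LN2 flash-cool; synchrotron data at 1.0 wavelength; MR using 1Q3X portions, partial refinement; single pose analysed when several seen.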

[1] = Table A2-9, ARG 630, AA atoms CG, CZ
[2] = Table A5-1 pharmacophore: distance between elements, S2/S1 region
[3] = Table A7-1, between pharmacophore elements of the bound compound
[4] = Table A7-2, between pharmacophore elements of the bound compound

MASP-2 CCP2-SP, sequence (O00187 445-686): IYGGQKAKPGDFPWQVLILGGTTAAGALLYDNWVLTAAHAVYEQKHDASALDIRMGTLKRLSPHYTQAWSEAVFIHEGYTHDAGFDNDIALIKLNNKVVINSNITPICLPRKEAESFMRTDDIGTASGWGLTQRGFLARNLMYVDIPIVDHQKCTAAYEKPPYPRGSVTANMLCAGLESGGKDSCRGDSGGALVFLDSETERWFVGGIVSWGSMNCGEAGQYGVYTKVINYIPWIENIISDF
MASP-2 CCP2-SP, sequence (O00187 364-432 partner): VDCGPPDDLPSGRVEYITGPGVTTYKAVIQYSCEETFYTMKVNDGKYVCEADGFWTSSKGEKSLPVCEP

Cc1nc(N)ccc1CNC(=O)[C@H](C)NC(=O)[C@H]1C[C@@H](Cc2ccccc2)CCN1 [compound 1353, (2R,4S)—N—((S)-1-(((6-Amino-2-methylpyridin-3-yl)methyl)amino)-1-oxopropan-2-yl)-4-benzylpiperidine-2-carboxamide]
H-bond distance to MASP-2 ASP 627 atom OD2 (Table A1 (H-Bonds)): 3.17
H-bond distance to MASP-2 GLY 656 atom N (Table A1 (H-Bonds)): 3.15
H-bond distance to MASP-2 GLY 656 atom O (Table A1 (H-Bonds)): 2.85
H-bond distance to MASP-2 SER 654 atom O (Table A1 (H-Bonds)): 3
H-bond distance to MASP-2 SER 657 atom O (Table A1 (H-Bonds)): 2.91
van der Waals contact distance, MASP-2 HIS 483 atom CD2: 3.77
van der Waals contact distance, MASP-2 HIS 483 atom NE2: 3.67
van der Waals contact distance, MASP-2 PHE 529 atom CD2 (Table A2-3): 3.68
van der Waals contact distance, MASP-2 TYR 607 atom CD1 (Table A2-4): 3.75
van der Waals contact distance, MASP-2 amino acid atom to compound atom (Table A2-7: SER 628 (CB, O, OG)): 3.66
van der Waals contact distance, MASP-2 amino acid atom to compound atom [1]: 3.74
van der Waals contact distance, VAL 653 CG1 to compound atom (Table A2-11): 3.3
van der Waals contact distance, TRP 655 CA to compound atom (Table A2-12): 3.3
Ligand-pharmacophore element distance, pharmacophore element C2: 0.58
Ligand-pharmacophore element distance, pharmacophore element C3: 0.13
Ligand-pharmacophore element distance, pharmacophore element C4: 0
Ligand-pharmacophore element distance, pharmacophore element C5: 0
Ligand-pharmacophore element distance, pharmacophore element C6: 0
Ligand-pharmacophore element distance, pharmacophore element C7: 0
Ligand-pharmacophore element distance, pharmacophore element CA1: 0.61
Ligand-pharmacophore element distance, pharmacophore element CA2: 0.5
Ligand-pharmacophore element distance, pharmacophore element CA3: 0
Ligand-pharmacophore element distance, pharmacophore element CA4: 0
Ligand-pharmacophore element distance, pharmacophore element CA5: 0
Ligand-pharmacophore element distance, pharmacophore element CA6: 0
d(C3,CA1) [2]: 2.85
d(CA1,N1)2 [2]: 1.36
d(CA1,O1) [2]: 4.38
d(CA1,O2) [2]: 3.79
d(H4,O1) [2]: 4.38
d(H4,O2) [2]: 3.72
d(O1,O2) [2]: 3.27
d(N2,C2): 1.45
d(N2,CA2): 6.50
d(O2,H3): 4.10
d(O2,N2): 2.69
a(C3, CA1, O1) (Table A6-1 pharmacophore angle): 149.99
a(CA1, O1, O2) (Table A6-1 pharmacophore angle): 103.61
a(O1, O2, H4) (Table A6-1 pharmacophore angle): 133.22
a(N1, CA1, O1) b) (Table A6-1 pharmacophore angle): 173.73
a(O1, O2, H3): 146.74
a(O1, O2, N2): 137.66
a(O2, N2, C2): 130.69
a(O2, N2, CA2): 157.19
Pharmacophore torsion angle a(C3, CA1, O1, H4) [3]: 23.38
Pharmacophore torsion angle a(H4, O1, O2, H3) [3]: 51.34
Pharmacophore torsion angle a(H4, O1, O2, N2) [3]: 136.30
Pharmacophore torsion angle a(N1, CA1, O1, H4) [3]: 3.14
Pharmacophore torsion angle a(O1, H4, O2, CA1) [3]: −84.72
Pharmacophore torsion angle a(O1, O2, N2, C2) [3]: 126.15
Pharmacophore torsion angle a(O1, O2, N2, CA2) [4]: 120.30

C[C@H](NC(=O)[C@H]1C[C@H](Cc2ccccc2)CN1)C(=O)NCc1ccc(C(=N)N)cc1.Cl.Cl [1306_1]
Ligand-pharmacophore element distance, pharmacophore element C2: 0
Ligand-pharmacophore element distance, pharmacophore element C3: 0
Ligand-pharmacophore element distance, pharmacophore element C4: 0
Ligand-pharmacophore element distance, pharmacophore element C5: 0
Ligand-pharmacophore element distance, pharmacophore element C6: 0
Ligand-pharmacophore element distance, pharmacophore element C7: 0
Ligand-pharmacophore element distance, pharmacophore element CA1: 0.05
Ligand-pharmacophore element distance, pharmacophore element CA2: 0.6
Ligand-pharmacophore element distance, pharmacophore element CA3: 0
Ligand-pharmacophore element distance, pharmacophore element CA4: 0
Ligand-pharmacophore element distance, pharmacophore element CA5: 0
Ligand-pharmacophore element distance, pharmacophore element CA6: 0
d(CA1,N1) [2]: 3.54
d(CA1,O1) [2]: 4.38
d(CA1,O2) [2]: 4.22
d(H4,O1) [2]: 4.25
d(H4,O2) [2]: 5.09
d(O1,O2) [2]: 3.06
d(N2,CA2): 6.06
d(O2,H3): 5.26
d(O2,N2): 2.66
a(CA1, O1, O2) (Table A6-1 pharmacophore angle): 107.94
a(O1, O2, H4) (Table A6-1 pharmacophore angle): 143.05
A(N1, CA1, O1) a) (Table A6-1 pharmacophore angle, all compounds with protonatable center N1 except Methyl-amino-pyridine): 158.44
a(O1, O2, H3): 152.11
a(O1, O2, N2): 135.46
a(O2, N2, CA2): 155.89
Pharmacophore torsion angle a(H4, O1, O2, H3) [3]: 36.21
Pharmacophore torsion angle a(H4, O1, O2, N2) [3]: 120.80
Pharmacophore torsion angle a(N1, CA1, O2, H4) [3]: 106.51
Pharmacophore torsion angle a(O1, H4, O2, CA1) [3]: −170.32
Pharmacophore torsion angle a(O1, O2, N2, CA2) [4]: 136.58

C[C@H](NC(=O)[C@H]1C[C@@H](c2ccccc2)CCN1)C(=O)NCc1cc(Cl)ccc1O [compound 1078]
H-bond distance to MASP-2 ARG 630 atom NH1 (second bond) (Table A1 (H-Bonds)): 3.25
H-bond distance to MASP-2 ARG 630 atom NH1 (Table A1 (H-Bonds), ARG 630 NH1, first column): 2.92
H-bond distance to MASP-2 GLY 656 atom N (Table A1 (H-Bonds)): 3.14
H-bond distance to MASP-2 SER 654 atom O (Table A1 (H-Bonds)): 2.66
van der Waals contact distance, MASP-2 HIS 483 atom CD2: 3.35
van der Waals contact distance, MASP-2 HIS 483 atom NE2: 3.28
van der Waals contact distance, MASP-2 amino acid atom to compound atom [1]: 3.78
van der Waals contact distance, VAL 653 CG1 to compound atom (Table A2-11): 3.49

CC(=O)Nc1ccc(CCN[C@H](CCc2ccccc2)C(=O)N[C@@H](C)C(=O)NCc2ccc(C(=N)N)cc2)cc1 [compound 1345, (R)-2-((4-acetamidophenethyl)amino)-N—((S)-1-((4-carbamimidoylbenzyl)amino)-1-oxopropan-2-yl)-4-phenylbutanamide]
H-bond distance to MASP-2 ARG 630 atom NH1 (second bond) (Table A1 (H-Bonds)): 2.37
H-bond distance to MASP-2 GLN 665 atom OE1 (Table A1 (H-Bonds), GLN 665 OE1): 2.63
H-bond distance to MASP-2 GLY 656 atom N (Table A1 (H-Bonds)): 3.05
H-bond distance to MASP-2 GLY 656 atom O (Table A1 (H-Bonds)): 3.13
H-bond distance to MASP-2 SER 628 atom O (Table A1 (H-Bonds)): 2.64
H-bond distance to MASP-2 SER 654 atom O (Table A1 (H-Bonds)): 3.02
H-bond distance to MASP-2 SER 657 atom O (Table A1 (H-Bonds)): 3.01
van der Waals contact distance, MASP-2 HIS 483 atom CD2: 3.69
van der Waals contact distance, MASP-2 HIS 483 atom NE2: 3.37
van der Waals contact distance, MASP-2 PHE 529 atom CZ (Table A2-3): 3.88
van der Waals contact distance, MASP-2 amino acid atom to compound atom [1]: 3.52
van der Waals contact distance, SER 654 C to compound atom (Table A2-11): 3.84
van der Waals contact distance, SER 654 O to compound atom (Table A2-12): 3.75
van der Waals contact distance GLY 656 atom C (Table A2-13, MASP-2 GLY 656 C): 3.74

Cc1nc(N)ccc1CNC(=O)C(C)NC(=O)C1CC(c2cccc3ccccc23)CCN1.Cl.Cl (stereo not drawn) [1297_6]
Ligand-pharmacophore element distance, pharmacophore element C2: 0.33
Ligand-pharmacophore element distance, pharmacophore element C3: 0.4
Ligand-pharmacophore element distance, pharmacophore element C4: 0
Ligand-pharmacophore element distance, pharmacophore element C5: 0
Ligand-pharmacophore element distance, pharmacophore element C6: 0
Ligand-pharmacophore element distance, pharmacophore element C7: 0
Ligand-pharmacophore element distance, pharmacophore element CA1: 0.36
Ligand-pharmacophore element distance, pharmacophore element CA2: 0.24
Ligand-pharmacophore element distance, pharmacophore element CA3: 0
Ligand-pharmacophore element distance, pharmacophore element CA4: 1.14
Ligand-pharmacophore element distance, pharmacophore element CA5: 0
Ligand-pharmacophore element distance, pharmacophore element CA6: 0
d(C3,CA1) [2]: 2.86
d(CA1,N1)2 [2]: 1.38
d(CA1,O1) [2]: 4.73
d(CA1,O2) [2]: 4.23
d(H4,O1) [2]: 4.65
d(H4,O2) [2]: 4.26
d(O1,O2) [2]: 3.53
d(N2,C2): 1.44
d(N2,CA2): 5.72
d(O2,H3): 4.15
d(O2,N2): 2.83
a(C3, CA1, O1) (Table A6-1 pharmacophore angle): 150.35
a(CA1, O1, O2) (Table A6-1 pharmacophore angle): 105.49
a(O1, O2, H4) (Table A6-1 pharmacophore angle): 133.61
a(N1, CA1, O1) b) (Table A6-1 pharmacophore angle): 173.49
a(O1, O2, H3): 144.79
a(O1, O2, N2): 141.32
a(O2, N2, C2): 116.76
a(O2, N2, CA2): 154.05
Pharmacophore torsion angle a(C3, CA1, O1, H4) [3]: 27.46
Pharmacophore torsion angle a(H4, O1, O2, H3) [3]: 43.22
Pharmacophore torsion angle a(H4, O1, O2, N2) [3]: 150.19
Pharmacophore torsion angle a(N1, CA1, O1, H4) [3]: 5.20
Pharmacophore torsion angle a(O1, H4, O2, CA1) [3]: −89.84
Pharmacophore torsion angle a(O1, O2, N2, C2) [3]: 132.97
Pharmacophore torsion angle a(O1, O2, N2, CA2) [4]: 131.04
Pharmacophore torsion angle a(O1, O2, N2, CA4) [4]: 109.63

C[C@H](NC(=O)[C@H]1C[C@H](c2ccccc2)CN1)C(=O)NCc1ccc(C(=N)N)cc1 [compound 1036]
H-bond distance to MASP-2 ASP 627 atom OD2 (Table A1 (H-Bonds)): 2.96
H-bond distance to MASP-2 GLY 656 atom N (Table A1 (H-Bonds)): 3.22
H-bond distance to MASP-2 SER 628 atom O (Table A1 (H-Bonds)): 2.9
H-bond distance to MASP-2 SER 657 atom O (Table A1 (H-Bonds)): 2.93
van der Waals contact distance, MASP-2 HIS 483 atom CD2: 3.81
van der Waals contact distance, MASP-2 PHE 529 atom CE2 (Table A2-3): 3.72
van der Waals contact distance TRP 655 atom N (Table A2-13, MASP-2 TRP 655 N): 3.58
van der Waals contact distance GLY 656 atom O (Table A2-14, MASP-2 GLY 656 O): 3.55
van der Waals contact distance SER 657 atom C (Table A2-14, MASP-2 SER 657 C, columns c12-c13 (inferred)): 3.57

— patent publication US12195427B2, “MASP-2 inhibitors and methods of use” (priority 2018, dated 2025)
